ChEMBL document CHEMBL1141951, “Anti-malarial activity of Baylis-Hillman adducts from substituted 2-chloronicotinaldehydes” (Bioorg Med Chem Lett, 2005)
In brackets after ≈: the same amount, converted by molar mass.

Columns and labels:
Type in all cases: functional, organism-based
Plasmodium falciparum [1] = experiment: Antimalarial activity as reduced schizont maturation after 24 hrs against chloroquine-resistant Plasmodium falciparum FDL-NG
Plasmodium falciparum [2] = experiment: Antimalarial activity as growth inhibition after 48 hrs against chloroquine-resistant Plasmodium falciparum FDL-NG
Plasmodium falciparum [3] = experiment: Antimalarial activity as growth inhibition after 48 hrs against chloroquine-sensitive Plasmodium falciparum FDL-B
Plasmodium falciparum [4] = experiment: Antimalarial activity as reduced schizont maturation against chloroquine-sensitive Plasmodium falciparum FDL-B after 24 hrs

C=C(C#N)C(O)c1cc(C)cnc1Cl (centres undefined)
IC50 (Plasmodium falciparum [1]): 22.5 µg/mL (≈ 108 µM)
IC50 (Plasmodium falciparum [2]): 10.5 µg/mL (≈ 50.3 µM)
IC50 (Plasmodium falciparum [3]): 1.3 µg/mL (≈ 6.23 µM)
IC50 (Plasmodium falciparum [4]): 1.25 µg/mL (≈ 5.99 µM)

C=C(C(=O)OC)C(O)c1cc(-c2ccccc2)cnc1Cl (centres undefined)
IC50 (Plasmodium falciparum [1]): 5 µg/mL (≈ 16.5 µM)
IC50 (Plasmodium falciparum [2]): 10.8 µg/mL (≈ 35.4 µM)
IC50 (Plasmodium falciparum [3]): 115 µg/mL (≈ 379 µM)
IC50 (Plasmodium falciparum [4]): 45 µg/mL (≈ 148 µM)

C=C(C#N)C(O)c1ccc(C(=O)OC)nc1Cl (centres undefined)
IC50 (Plasmodium falciparum [1]): 5.75 µg/mL (≈ 22.8 µM)
IC50 (Plasmodium falciparum [2]): 6.75 µg/mL (≈ 26.7 µM)
IC50 (Plasmodium falciparum [3]): 7 µg/mL (≈ 27.7 µM)
IC50 (Plasmodium falciparum [4]): 3.4 µg/mL (≈ 13.5 µM)

C=C(C(=O)OC)C(O)c1cc(C)cnc1Cl (centres undefined)
IC50 (Plasmodium falciparum [1]): 3.05 µg/mL (≈ 12.6 µM)
IC90 (Plasmodium falciparum [1]): 7 µg/mL (≈ 29 µM)
IC50 (Plasmodium falciparum [2]): 5.75 µg/mL (≈ 23.8 µM)
IC90 (Plasmodium falciparum [2]): 27.5 µg/mL (≈ 114 µM)
IC50 (Plasmodium falciparum [3]): 28.5 µg/mL (≈ 118 µM)
IC50 (Plasmodium falciparum [4]): 18 µg/mL (≈ 74.5 µM)
IC90 (Plasmodium falciparum [4]): 32 µg/mL (≈ 132 µM)

C=C(C#N)C(O)c1cc(CC)cnc1Cl (centres undefined)
IC50 (Plasmodium falciparum [1]): 2.5 µg/mL (≈ 11.2 µM)
IC50 (Plasmodium falciparum [2]): 5.5 µg/mL (≈ 24.7 µM)
IC50 (Plasmodium falciparum [3]): 4 µg/mL (≈ 18 µM)
IC50 (Plasmodium falciparum [4]): 1.8 µg/mL (≈ 8.08 µM)

C=C(C#N)C(O)c1cc(-c2ccccc2)cnc1Cl (centres undefined)
IC50 (Plasmodium falciparum [1]): 0.9 µg/mL (≈ 3.32 µM)
IC50 (Plasmodium falciparum [2]): 2.2 µg/mL (≈ 8.13 µM)
IC50 (Plasmodium falciparum [3]): 8 µg/mL (≈ 29.6 µM)
IC50 (Plasmodium falciparum [4]): 3.6 µg/mL (≈ 13.3 µM)

CCN(CC)CCCC(C)Nc1ccnc2cc(Cl)ccc12 (centres undefined) [CHLOROQUINE]
IC90 (Plasmodium falciparum [3]): 0.02 µg/mL (≈ 0.0625 µM)
IC90 (Plasmodium falciparum [4]): 0.018 µg/mL (≈ 0.0563 µM)
